Laboratory results published in patent publication US10610608B2, “Modular imaging agents containing amino acids and peptides” (Rochester Institute of Technology, priority 2013, dated 2020).

Tested on: live A549 human cancer cells
Assay: Confocal fluorescence microscopy (CFM) of live A549 cells stained with c(RGDyK) peptide conjugates (TMIAs)
Format: cell-based
Details: 5 μM conjugate, 2 hours incubation, 37° C., HeNe633 laser
Protocol: The general protocol for Confocal Microscopy by Chen, et al was followed with the following detailed procedures for cell culture and staining.
Cell Preparation: An A549 culture obtained from the American Type Culture Collection (ATCC) was grown to 50-70% confluency in an In Vitro Scientific 35 mm culture dish with 10 mm Glass bottom well. The culture was incubated in DMEM (Dulbecco's Modified Eagle Medium) with 10% Fetal Bovine Serum (FBS) overnight at 37° C. and 5% CO2. To obtain a suspension cell culture for transfer purpose, the cells were washed with Phosphate Buffered Saline (PBS) and then 0.25% Trypsin-EDTA (1×) (Invitrogen) was added to detach the cells.
Cell Staining: The cells were washed 3× with pre-heated PBS (Phosphate-buffered saline). 5 μM c(RGDyK) peptide conjugates (TMIAs) were added to the 10 mm glass bottom well and incubated at 37° C. and 5% CO2. Cells were then washed 4× with chilled PBS. The samples were viewed immediately under the scanning laser confocal microscope (Leica Microsystems Inc.). Confocal Microscopy Scanning: Leica TCS SP5 II AOBS Filter Free Tunable Spectral Confocal Research Microscope with Resonant Scanner and Hybrid Detectors attached to Leica DMI6000 Fully Automated Microscope was used, with 40× water immersion objective. The 405 Diode and HeNe633 lasers were employed for visualizing suspected auto-fluorescence, c(RGDyK) Cy5.5-TMIA respectively. […]

c(RGDyK)-SMCC-DLys(Cy5.5)-Lys(Gd-DOTA)-NH2 [Compound (44)]
CFM image: fluorescence of the TMIA in the cell: illuminated areas a result of fluorescence of the TMIA
